Measurements published in paper PMC9653995, “New Positive TRPC6 Modulator Penetrates Blood–Brain Barrier, Eliminates Synaptic Deficiency and Restores Memory Deficit in 5xFAD Mice” (International Journal of Molecular Sciences, 2022).

Key:
[1] = In vivo pharmacokinetics in plasma and brain after single i.p. injection; parameters: species or system CD-1 mice; conditions: mice, 10 mg/kg i.p.
Description: Two-month-old CD-1 mice (males) were used for pharmacokinetic studies. CD-1 mice were obtained from Charles River GmbH and housed in the laboratory of bioanalytics of the ChemRar research institute. The number of animals in the study was kept at a minimum in terms of ethical principles and regulatory requirements.
The study was carried out on 20 mice. Five animals constituted the control group, which were not injected with the C20 substance. The remaining 15 animals were divided into 5 groups of 3 animals per time point. At least 12 h before the start of the experiment, the animals were deprived of food with free access to water.
All 15 animals from the experimental groups underwent a single intraperitoneal injection of the C20 formulation at a dose of 10 mg/kg (formulation containing 10% ethanol). After 0.25, 0.5, 1, 2, and 4 h, CO2 euthanasia was performed in each group of animals in accordance with the time point. Blood plasma and brain samples were obtained.
Blood was collected by cardiopuncture in a volume of 0.2 mL into polypropylene tubes containing 20 μL of 5% EDTA. Blood plasma was separated by centrifugation at 10,000 rpm for 10 min.
Pharmacokinetic analysis was performed by a non-compartmental method using the Phoenix WinNonlin 6.3 software package (Pharsight Corporation, Mountain View, CA, USA) and in accordance with SOP-BL-AN-027 “Calculation and analysis of parameters of pharmacokinetic and toxicokinetic studies. Statistical processing of results”.
Analysis of pharmacokinetic parameters was performed using averaged pharmacokinetic curves in the plasma and brain. The main pharmacokinetic parameters were determined:
The intensity of C20 penetration into the brain was assessed in terms of tissue availability (ft):(1) ft=AUCt/AUCk, where AUCt is the area under the pharmacokinetic curve in the tissue; AUCk is the area under the pharmacokinetic curve in blood plasma.

5xFAD mice = experiment: Contextual and cued fear conditioning test; assay type: in vivo, mouse; conditions: 10 mg/kg i.p. daily for 14 days
Description: To analyze the effect of C20 on the cognitive status of diseased mice, a contextual and cued fear conditioning test was performed in the 5xFAD mice. Two WT cohorts and two 5xFAD cohorts of eight mice each were intraperitoneally injected (every day for 14 days) with either C20 (10 mg/kg) or an equal amount of vehicle.
Six-month-old 5xFAD and WT mice were intraperitoneally injected with C20 (10 mg/kg b.w. dissolved in ethanol (13.5%) and diluted in 0.9% saline (86.5%)) or an equal volume of ethanol diluted in 0.9% saline (vehicle) once daily for 14 days. To analyze the effect of C20 on cognitive behavior, mice were subjected to hippocampus-dependent contextual fear conditioning and hippocampus independent tone fear conditioning (n = 8 mice in each group).
According to a 3-day delay fear conditioning protocol, the conditioned stimulus is presented and overlapped by the presentation of the unconditioned stimulus. The experiments were performed using a standard conditioning chamber (25 cm × 20 cm × 30 cm) with a stainless steel floor connected to an electric shock generator. The chamber was housed in a soundproof isolation cubicle. Measurements were accomplished through two cameras (Web camera FI#2.0 8mm и Webcam Logitech C200, Apples, Switzerland), connected to a computer with video freeze software (AUTO_URAI_4 developer Dr. V.V. Sizov, Institute of Experimental Medicine, Saint Petersburg, Russia, I.P. Pavlov Department of Physiology, sizoff@list.ru).
To exclude possible freezing due to the novel environment, we allowed the mice to habituate to the chamber. On day 1 (habituation), we brought mice into the habituation room and placed them into a training chamber individually for 5 min without any cue.
On day 2 (training), we placed each mouse in the conditioning chamber for 2 min without any shock or tone. Then, mice received two repetitions of a tone (500 Hz, 55 dB) that simultaneously ended with a 2 s foot shock (0.3 mA, US) with 60 s inter-trial intervals. Mice were allowed to recover after the foot-shock for an additional 60 s before being removed to their home cage.
On day 3 (testing), mice were placed back in the familiar fear conditioning chamber, but in the absence of tones and foot shocks. The freezing behavior was measured for 180 s to test contextual memory retrieval. For the tone fear retrieval trial one hour after the contextual test, mice were placed in an altered conditioning chamber with black and white striped walls, a covered floor, and a vanilla extract scent. After 180 s of baseline in an altered conditioning recording, a tone similar to the one used during the fear conditioning training was presented for 180 s. The freezing behavior before and during the tone was measured.

TRPC3 = conditions: cited from earlier work

concentration in brain samples after 4 h [1]: 10 ng/g
half-life (t1/2) of elimination from plasma [1]: 31.2 min
half-life (t1/2) of excretion from the brain [1]: 44.4 min
maximum concentration in plasma ([1]; formulation with 10% ethanol): 789 ng/mL
time of maximum concentration (plasma and brain) ([1]; first sampling point): 15 min
index of tissue availability in the brain (ft) in relation to blood plasma ([1]; ft = AUCt/AUCk): 1.05
SMILES: COc1cc2c(cc1OC)C(c1cc3ccccc3oc1=O)=NC(C)(C)C2 [C20, 3-(3-,4-Dihydro-6,7-dimethoxy-3,3-dimethyl-1-isoquinolinyl)-2H-1-benzopyran-2-one]
freezing time to context (5xFAD mice; 6-month-old 5xFAD mice, 5xFAD + vehicle 33.88 ± 15.09%): 67.00 ± 17.78%
freezing time to tone (5xFAD mice; 6-month-old 5xFAD mice, 5xFAD + vehicle 37.75 ± 8.25%): 63.50 ± 13.38%
freezing time to context (5xFAD mice; WT mice, WT + vehicle 58.25 ± 19.06%): 59.63 ± 17.53%
freezing time to tone (5xFAD mice; WT mice, WT + vehicle 69.25 ± 18.19%): 67.75 ± 7.56%
activation of TRPC3 (TRPC3): does not activate TRPC3
